Reference: patent publication US20240058283A1, “THE MODE OF ACTION OF N-MeDCPA ON TRPC CHANNELS” (West Virginia University Board of Governors on Behalf of …, priority 2022, published 2024)

Legend:
Serum levels in vivo = test: Serum levels in vivo
From the text: We have extensively investigated inhibitors of the store-operated Ca^2+ entry (SOCE) pathway as a target for control of bone erosion, particularly in the context of arthritis. […] On this basis, we have assessed the possibility that DCPA and/or DCPA analogs might be effective inhibitors of bone erosion in the context of arthritis^6. While this has proven to the case (data not shown), this investigation has opened new questions regarding the true identity of the DCPA target. […] As such, we have assessed the possibility that DCPA and its analogs may have a different target, especially within the context of arthritis.

osteoclasts = conditions: reference 3, cited from earlier work

## CCC(=O)Nc1ccc(Cl)c(Cl)c1 [DCPA, 3,4-dichloropropionaniline]
Serum levels in vivo
  serum levels: ≤ 100 nM
osteoclasts; in vitro
  formation of bone degrading osteoclasts: reduced the formation of bone degrading osteoclasts
osteoclasts; no block below this concentration
  concentration needed to block osteoclast differentiation: ≥ 100 µM
